For 15 compounds, IC50 results are on record in patent publication US9174952B2, “Substituted 3-thiazoloamino-propionic acid derivatives and their use as pharmaceuticals” (SANOFI, priority 2011, dated 2015).

The structures appear in SMILES notation. pIC50: −log10 of the molar value.

The target of this test is T1, Recombinant human cathepsin A (Homo sapiens, UniProt P10619).
T1 construct: Recombinant human cathepsin A (residues 29-480, with a C-terminal 10-His tag); 10-His (C); purchased R&D Systems 1049-SE
T1 sequence (P10619 29-326 limits assumed): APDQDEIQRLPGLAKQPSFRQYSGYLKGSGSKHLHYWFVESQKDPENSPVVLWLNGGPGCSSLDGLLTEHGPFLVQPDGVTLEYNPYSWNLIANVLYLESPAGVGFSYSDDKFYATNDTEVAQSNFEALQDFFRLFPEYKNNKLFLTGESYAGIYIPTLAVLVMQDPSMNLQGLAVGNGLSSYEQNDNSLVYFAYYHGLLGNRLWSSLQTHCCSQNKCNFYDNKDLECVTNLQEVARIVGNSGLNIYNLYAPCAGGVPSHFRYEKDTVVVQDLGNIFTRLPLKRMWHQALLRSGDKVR
T1 sequence (P10619 327-480 limits assumed): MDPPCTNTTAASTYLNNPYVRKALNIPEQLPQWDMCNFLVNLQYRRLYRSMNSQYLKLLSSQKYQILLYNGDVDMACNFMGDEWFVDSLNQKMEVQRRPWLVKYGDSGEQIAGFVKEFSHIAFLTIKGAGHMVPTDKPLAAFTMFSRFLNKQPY
Kind of test: Cathepsin A inhibitory activity. It counts as biochemical. Conditions: activated recombinant human cathepsin A 833 ng/ml, Bodipy FL-labeled bradykinin substrate 2 μM, pH 5.5, room temperature. Here is the method:
a) Cathepsin A Inhibitory Activity
Recombinant human cathepsin A (residues 29-480, with a C-terminal 10-His tag; R&D Systems, #1049-SE) was proteolytically activated with recombinant human cathepsin L (R&D Systems, #952-CY). Briefly, cathepsin A was incubated at 10 μg/ml with cathepsin L at 1 μg/ml in activation buffer (25 mM 2-(morpholin-4-yl)-ethanesulfonic acid (MES), pH 6.0, containing 5 mM dithiothreitol (DTT)) for 15 min at 37° C. Cathepsin L activity was then stopped by the addition of the cysteine protease inhibitor E-64 (N-(trans-epoxysuccinyl)-L-leucine-4-guanidinobutylamide; Sigma-Aldrich, # E3132; dissolved in activation buffer/DMSO) to a final concentration of 10 μM.
The activated cathepsin A was diluted in assay buffer (25 mM MES, pH 5.5, containing 5 mM DTT) and mixed with the test compound (dissolved in assay buffer containing (v/v) 3% DMSO) or, in the control experiments, with the vehicle in a multiple assay plate. After incubation for 15 min at room temperature, as substrate then bradykinin carrying an N-terminal ®Bodipy FL (4,4-difluoro-5,7-dimethyl-4-bora-3a,4a-diaza-s-indacene-3-propionyl) label (JPT Peptide Technologies GmbH; dissolved in assay buffer) was added to the mixture. The final concentration of cathepsin A was 833 ng/ml and the final concentration of labeled bradykinin 2 μM. After incubation for 15 min at room temperature the reaction was stopped by the addition of stop buffer (130 mM 2-(4-(2-hydroxy-ethyl)-piperazin-1-yl)-ethanesulfonic acid, pH 7.4, containing (v/v) 0.013% ®Triton X-100, 0.13% Coating Reagent 3 (Caliper Life Sciences), 6.5% DMSO and 20 μM ebelactone B (Sigma, # E0886)).
Uncleaved substrate and product were then separated by a microfluidic capillary electrophoresis on a LabChip® 3000 Drug Discovery System (12-Sipper-Chip; Caliper Life Sciences) and quantified by determination of the respective peak areas. Substrate turnover was calculated by dividing product peak area by the sum of substrate and product peak areas, and the enzyme activity and the inhibitory effect of the test compound thus quantified. From the percentage of inhibition of cathepsin A activity observed with the test compound at several concentrations, the inhibitory concentration IC50, i.e. the concentration which effects 50% inhibition of enzyme activity was, calculated.

As for `O=C(O)C[C@H](NC(=O)c1csc(-c2cccc(Cl)c2Cl)n1)c1ccccc1Cl` [Example 28, (S)-3-(2-Chloro-phenyl)-3-{[2-(2,3-dichloro-phenyl)-thiazole-4-carbonyl]-amino}-propionic acid], the negative-log IC50 (pIC50) (commonly −log10 of the IC50, conventionally taken in molar units) is 6.55.
In the case of `O=C(O)C[C@H](NC(=O)c1csc(-c2ccccc2Cl)n1)c1ccccc1Cl` [Example 29, (S)-3-(2-Chloro-phenyl)-3-{[2-(2-chloro-phenyl)-thiazole-4-carbonyl]-amino}-propionic acid] it was 7.00; in that of `O=C(O)C[C@H](NC(=O)c1csc(-c2ccccc2F)n1)c1ccccc1Cl` [Example 30, (S)-3-(2-Chloro-phenyl)-3-{[2-(2-fluoro-phenyl)-thiazole-4-carbonyl]-amino}-propionic acid], 6.42; in that of `O=C(O)C[C@H](NC(=O)c1csc(-c2cccc(Cl)c2)n1)c1ccccc1Cl` [Example 31, (S)-3-(2-Chloro-phenyl)-3-{[2-(3-chloro-phenyl)-thiazole-4-carbonyl]-amino}-propionic acid], 6.15.
On to `O=C(O)C[C@H](NC(=O)c1csc(-c2ccc(Cl)cc2)n1)c1ccccc1Cl` [Example 32, (S)-3-(2-Chloro-phenyl)-3-{[2-(4-chloro-phenyl)-thiazole-4-carbonyl]-amino}-propionic acid], for which the pIC50 was 5.85.
For the compound `O=C(O)C[C@H](NC(=O)c1csc(-c2ccc(C(F)(F)F)cc2)n1)c1ccccc1Cl` [Example 33, (S)-3-(2-Chloro-phenyl)-3-{[2-(4-trifluoromethyl-phenyl)-thiazole-4-carbonyl]-amino}-propionic acid], the negative-log IC50 (pIC50) is 5.51.
Take `Cc1ccccc1-c1nc(C(=O)N[C@@H](CC(=O)O)c2ccccc2F)cs1` [Example 34, (S)-3-(2-Fluoro-phenyl)-3-[(2-o-tolyl-thiazole-4-carbonyl)-amino]-propionic acid]: the negative logarithm of the IC50 (pIC50) was 6.50.
Under `O=C(O)C[C@H](NC(=O)c1csc(-c2ccccc2)n1)c1ccccc1F` [Example 35, (S)-3-(2-Fluoro-phenyl)-3-[(2-phenyl-thiazole-4-carbonyl)-amino]-propionic acid] stands 5.83; under `O=C(O)C[C@H](NC(=O)c1csc(-c2ccccc2F)n1)c1ccccc1F` [Example 36, (S)-3-(2-Fluoro-phenyl)-3-{[2-(2-fluoro-phenyl)-thiazole-4-carbonyl]-amino}-propionic acid], 6.18.
As for `O=C(O)C[C@H](NC(=O)c1csc(-c2ccc(C(F)(F)F)cc2)n1)c1ccccc1F` [Example 37, (S)-3-(2-Fluoro-phenyl)-3-{[2-(4-trifluoromethyl-phenyl)-thiazole-4-carbonyl]-amino}-propionic acid], the pIC50 is 4.83.
In the case of `O=C(O)C[C@H](NC(=O)c1csc(-c2ccc(C(F)(F)F)cc2)n1)c1ccccc1C(F)(F)F` [Example 38, (S)-3-(2-Trifluoromethyl-phenyl)-3-{[2-(4-trifluoromethyl-phenyl)-thiazole-4-carbonyl]-amino}-propionic acid] it was 4.63.
For `Cc1ccccc1-c1nc(C(=O)N[C@@H](CC(=O)O)c2cccc(Cl)c2)cs1` [Example 39, (S)-3-(3-Chloro-phenyl)-3-[(2-o-tolyl-thiazole-4-carbonyl)-amino]-propionic acid], the negative-log IC50 (pIC50) was 6.09.
In the case of `O=C(O)C[C@H](NC(=O)c1csc(-c2ccccc2)n1)c1cccc(Cl)c1` [Example 40, (S)-3-(3-Chloro-phenyl)-3-[(2-phenyl-thiazole-4-carbonyl)-amino]-propionic acid] it was 6.09; in that of `O=C(O)C[C@H](NC(=O)c1csc(-c2cccc(Cl)c2Cl)n1)c1cccc(Cl)c1` [Example 41, (S)-3-(3-Chloro-phenyl)-3-{[2-(2,3-dichloro-phenyl)-thiazole-4-carbonyl]-amino}-propionic acid], 6.23; in that of `O=C(O)C[C@H](NC(=O)c1csc(-c2ccccc2Cl)n1)c1cccc(Cl)c1` [Example 42, (S)-3-(3-Chloro-phenyl)-3-{[2-(2-chloro-phenyl)-thiazole-4-carbonyl]-amino}-propionic acid], 6.62.
